We go through 11 compounds from patent publication US20120010186A1, “HETEROCYCLIC COMPOUNDS AS INHIBITORS OF STEAROYL-COENZYME A DELTA-9 DESATURASE” (MERCK FROSST CANADA LTD., priority 2009, published 2012).

By IC50 is commonly meant the concentration that gives 50% inhibition.

The structures appear in SMILES notation.

The target in the assay is T1, human SCD1 (hSCD-1) (Homo sapiens, UniProt O00767).
T1 construct: made in house; host or cells: baculovirus/Sf9
T1 sequence (O00767 1-359): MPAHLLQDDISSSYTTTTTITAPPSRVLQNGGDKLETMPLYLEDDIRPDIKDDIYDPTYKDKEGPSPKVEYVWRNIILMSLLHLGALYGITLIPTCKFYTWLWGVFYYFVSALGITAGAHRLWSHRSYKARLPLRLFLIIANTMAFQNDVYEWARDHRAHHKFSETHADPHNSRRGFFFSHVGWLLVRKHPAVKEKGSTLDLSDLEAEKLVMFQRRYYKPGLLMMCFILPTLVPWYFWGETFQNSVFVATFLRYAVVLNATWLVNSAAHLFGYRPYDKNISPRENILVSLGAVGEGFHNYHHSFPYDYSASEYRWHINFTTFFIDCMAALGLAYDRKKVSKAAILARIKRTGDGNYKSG
The experiment in a line: SCD enzyme activity assay, reconstituted human SCD1 (hSCD-1). The assay is classed as biochemical. As to the method:
The potency of compounds of formula I against the stearoyl-CoA desaturase was determined by measuring the conversion of radiolabeled stearoyl-CoA to oleoyl-CoA using rat liver microsome or human SCD1 (hSCD-1) following previously published procedures with some modifications (Joshi, et al., J. Lipid Res., 18: 32-36 (1977); Talamo, et al., Anal. Biochem, 29: 300-304 (1969)). Liver microsome was prepared from male Wistar or Sprague Dawley rats on a high carbohydrate diet for 3 days (LabDiet #5803, Purina). The livers were homogenized (1:10 w/v) in a buffer containing 250 mM sucrose, 1 mM EDTA, 5 mM DTT and 50 mM Tris-HCl (pH 7.5). After a 100,000×g centrifugation for 60 min, the liver microsome pellet was suspended in a buffer containing 100 mM sodium phosphate, 20% glycerol, 2 mM DTT, and stored at −78° C. Human SCD1 desaturase system was reconstituted using human SCD1 from a baculovirus/Sf9 expression system, cytochrome B5 and cytochrome B5 reductase. Typically, test compound in 2 μL DMSO was incubated for 15 min at room temperature with 180 μL of the SCD enzyme in a buffer containing 100 mM Tris-HCl (pH 7.5), ATP (5 mM), Coenzyme-A (0.1 mM), Triton X-100 (0.5 mM) and NADH (2 mM). The reaction was initiated by the addition of 20 μL of [^3H]-stearoyl-CoA (final concentration=2 μM, radioactivity concentration=1 μCi/mL). After 10 min, the reaction mixture (80 μL) was mixed with a calcium chloride/charcoal aqueous suspension (100 μL charcoal (10% w/v) plus 25 μL CaCl2 (2N). After centrifugation to precipitate the radioactive fatty acid species, tritiated water released from 9,10-[^3H]-stearoyl-CoA by the SCD enzyme was quantified on a scintillation counter.
In the case of `O=C(O)Cn1nnc(-c2cnc(N3CC4(C3)CN(c3cc(F)ccc3Cl)C4)s2)n1`, half-maximal inhibition (IC50) required 11 nM. Under `O=C(O)Cn1nnc(-c2cnc(N3CC4CN(c5cc(OC(F)(F)F)ccc5Cl)CC4C3)s2)n1` (centres unmarked) stands 10 nM. Under `O=C(O)Cn1nnc(-c2cnc(N3CC4CN(c5cc(F)ccc5Br)CC4C3)nc2)n1` (centres unmarked) stands 77 nM; under `O=C(O)Cn1nnc(-c2cc(N3CC4CN(c5cc(F)ccc5Cl)CC4C3)no2)n1` (centres unmarked), 27 nM.

`O=C(O)Cn1nnc(-c2cnc(N3CC4(CCN(c5cc(F)ccc5Cl)CC4)C3)s2)n1` had an IC50 of 45 nM. Regarding `O=C(O)Cn1nnc(-c2cnc(N3CC4CN(c5cc(Cl)ccc5Cl)CC4C3)s2)n1` (centres unmarked), the midpoint of inhibition, the IC50, lay at 13 nM. Take `O=C(O)Cn1nnc(-c2cnc(N3CC4CN(c5cc(F)ccc5Cl)CC4C3)s2)n1` (centres unmarked): 12 nM corresponded to half-maximal inhibition (IC50). Under `O=C(O)Cn1nnc(-c2cnc(N3CCC4(CCN(c5ccccc5Cl)C4)C3)s2)n1` (centres unmarked) stands 161 nM; under `O=C(O)Cn1nnc(-c2cnc(N3CCC4(CC3)CN(c3cc(F)ccc3Cl)C4)s2)n1`, 39 nM; under `O=C(O)Cn1nnc(-c2cnc(N3CC4CN(c5cc(C(F)(F)F)ccc5Br)CC4C3)s2)n1` (centres unmarked), 14 nM. Under `O=C(O)Cn1nnc(-c2cnc(N3CC4CN(c5cc(Cl)cc(F)c5Cl)CC4C3)s2)n1` (centres unmarked) stands 13 nM.
